The NIST ThermoML archive (doi:10.1016/j.tca.2007.11.004)
Several values for one entry are separate records, joined by “and”; a condition that tells them apart may be missing. Equal values may be shown once.

Settings: Crystal, Transpiration method

O=[Te]=O [tellurium dioxide]
Settings	vapor or sublimation pressure
884 K	0.0001487 kPa
889 K	0.0001692 kPa
895 K	0.0001987 kPa
899 K	0.0002538 kPa
905 K	0.0003102 kPa
909 K	0.0003271 kPa
915 K	0.0004741 kPa
925 K	0.0006099 kPa and 0.0006023 kPa and 0.0005679 kPa
926 K	0.0005409 kPa
935 K	0.0009295 kPa
940 K	0.001155 kPa
941 K	0.001072 kPa
946 K	0.001255 kPa
951 K	0.001465 kPa
960 K	0.002168 kPa
971 K	0.003407 kPa
976 K	0.003717 kPa
982 K	0.004543 kPa
987 K	0.004956 kPa
